# Earlier results in US20030198684A1 (priority 2002, published 2003).
# Where two headings read alike, the source gives them in different places.
# How the values were obtained:
# [1] = 300 mg/wk for six weeks; TE: shoulders; ND: shoulders and chest
# [2] = HIV-infected men, pharmacological doses
# [3] = molecular target: T1, aromatase (Homo sapiens, UniProt P11511); details: compared with chrysin, AG and ANG
# T1 sequence (P11511 1-503): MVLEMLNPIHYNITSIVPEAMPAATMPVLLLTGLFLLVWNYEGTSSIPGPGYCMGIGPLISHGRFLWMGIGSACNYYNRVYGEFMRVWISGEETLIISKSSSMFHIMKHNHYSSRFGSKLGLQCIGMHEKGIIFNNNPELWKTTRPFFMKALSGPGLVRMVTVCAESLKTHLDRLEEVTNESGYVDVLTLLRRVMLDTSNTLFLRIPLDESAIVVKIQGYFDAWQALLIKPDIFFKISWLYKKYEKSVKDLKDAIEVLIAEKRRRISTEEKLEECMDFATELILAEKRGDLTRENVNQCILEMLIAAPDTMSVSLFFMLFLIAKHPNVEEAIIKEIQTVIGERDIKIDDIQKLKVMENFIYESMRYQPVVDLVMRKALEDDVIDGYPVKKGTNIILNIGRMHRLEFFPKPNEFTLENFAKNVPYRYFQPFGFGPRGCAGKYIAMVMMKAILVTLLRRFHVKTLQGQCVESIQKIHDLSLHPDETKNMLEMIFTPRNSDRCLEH
# [4] = for waking erection: Asian hypogonadal men; for sexual interest and activity, spontaneous erection: Caucasian hypogonadal men
# [5] = test system: prostate and seminal vesicle weights
# [6] = test system: levator ani muscles
# [7] = test system: young female rats; details: constant infusion
# [8] = supplementation
# [9] = patients on dialysis, compared with placebo
# [10] = in vivo
# [11] = body builders
# [12] = in vivo; remark: listed apart in the source
# [13] = supplementation; remark: listed apart in the source
smiles,measurement,setting,value
"CCCCCCCCCC(=O)O[C@H]1CC[C@H]2[C@@H]3CCC4=CC(=O)CC[C@@H]4[C@H]3CC[C@]12C [nandrolone decanoate, 19-nor-testosterone decanoate]",body circumferences (of fifteen),[1],significant increases
same,"total weight, lean body mass, body cell mass, muscle size, and strength",[2],significant gains
"COc1ccc(-c2coc3cc(O)cc(O)c3c2=O)cc1 [Biochanin A, 5,7-dihydroxy-4′-methoxyisoflavone]",aromatase inhibition (in words),[3],"inhibited aromatase, but to a lesser degree"
"C[C@@H]1CC2=CC(=O)CC[C@@H]2[C@H]2CC[C@]3(C)[C@@H](O)CC[C@H]3[C@@H]21 [MENT, 7α-methyl-19-nor-testosterone]",waking erection,[4],increased waking erection
same,"sexual interest and activity, spontaneous erection",[4],significant increases
same,androgenic potency relative to testosterone,[5],four- to five-times more androgenic than testosterone
same,anabolic potency relative to testosterone,[6],ten-times as potent as testosterone
C[C@]12CC[C@H]3[C@@H](CC=C4C[C@@H](O)CC[C@@]43C)[C@@H]1CC[C@@H]2O [5-androstenediol],lipid deposition or heat production,[7],did not have a significant effect
same,proportion of protein in the body composition,[7],increased
C[C@]12CCC(=O)C=C1CC[C@@H]1[C@@H]2CC[C@]2(C)C(=O)CC[C@@H]12 [4-androstenedione],serum testosterone,[8],produced elevations in serum testosterone
"CCCCCCC(=O)O[C@H]1CC[C@H]2[C@@H]3CCC4=CC(=O)CC[C@]4(C)[C@H]3CC[C@]12C [TE, testosterone enanthate]",waking erection,[4],increased waking erection
same,"sexual interest and activity, spontaneous erection",[4],significant increases
same,body circumferences (of fifteen),[1],significant increases
C[C@]12CC[C@H]3[C@@H](CCC4=CC(=O)CC[C@@]43C)[C@@H]1CC[C@@H]2O [testosterone],lipid deposition or heat production,[7],did not have a significant effect
same,proportion of protein in the body composition,[7],increased
"C[C@]12CC[C@H]3[C@@H](CCC4=CC(=O)CC[C@@H]43)[C@@H]1CC[C@@H]2O [nandrolone, 19-nor-testosterone]",lean body mass,[9],increased significantly
same,energy expenditure,[7],increased energy expenditure
same,azoospermia,[10],azoospermia (lack of sperm) associated with nandrolone use
same,decrease in HDL-choresterol and diastolic blood pressure,[11],25-27%
C[C@]12CC[C@H]3[C@@H](CCC4=C[C@@H](O)CC[C@@]43C)[C@@H]1CC[C@@H]2O [4-androstenediol],human serum testosterone levels,[12],produce elevations in human serum testosterone levels
same,urine testosterone concentration relative to 4androstenedione,[13],10 fold
"C[C@]12CC[C@H](O)CC1=CC[C@@H]1[C@@H]2CC[C@]2(C)C(=O)CC[C@@H]12 [DHEA, dehydro-epiandrosterone]",plasma testosterone,50 mg dose of DHEA,restored plasma testosterone to levels similar to those observed in young women
same,delta 5-androstenediol,50 mg or 200 mg DHEA,small increase
same,plasma delta 4-androstenedione increase,50 mg or 200 mg DHEA,significant and dose dependent
same,"plasma estrogens, particularly estradiol",50 mg or 200 mg DHEA,significant and dose dependent increase
same,plasma testosterone,200 mg dose of DHEA,"important increase of plasma testosterone, slightly below the levels observed in normal men"
same,increase of plasma dihydrotestosterone levels,both doses of DHEA,small at both doses
